The values below come from patent US20250304965A1, “DOUBLE-STRANDED RNA MOLECULE AND PHARMACEUTICAL USE THEREOF” (MACAU UNIVERSITY OF SCIENCE AND TECHNOLOGY, priority 2022, published 2025).

Type in all cases: cell-based, human
In one series the test system is A2780 cells. In words: MTT cytotoxicity analysis, ovarian cancer cells A2780. To be noted: for IC50: A2780 ovarian cancer cells, 48 hours of treatment, Lipofectamine RNAiMAX transfection reagent, MTT, read-out: Median inhibitory concentration IC50; for inhibition of growth and proliferation (cell viability vs control and RNAiMAX group): ovarian cancer cells A2780, 6.25-200 nM, 48 hours, FIG. 6-8. As to the method:
(§1) A2780 and HCT-8 cell lines were cultured in RPMI 1640 medium containing 10% FBS and 1% penicillin/streptomycin. HepG2 cell lines were cultured in MEM medium containing 10% FBS and 1% penicillin/streptomycin. All the above cell lines were cultured at 37° C. in a humidified atmosphere containing 5% CO2.
(§2) In the cytotoxicity analysis, exponentially growing cells of each cancer cell line were inoculated at a density of 5000 cells per well in a 100 μL medium in a 96-well microplate and allowed to adhere for 24 hours prior to treatment. Then obtained RNA molecules at successive concentrations with a nucleic acid transfer vector, namely, Lipofectamine™ RNAiMAX transfection reagent (Thermo Fisher Scientific, United States), were added to the cells. After 48 hours of treatment, MTT solution (50 μL per well, 1 mg/mL solution) was added to each well and incubated at 37° C. for 4 hours. Then 200 μL of dimethyl sulfoxide (DMSO) was added, and an optical density of the resulting solution was measured via calorimetry by using SpectraMax 190 microplate reader (Molecular Devices, United States) at 570 nm. Dose-response curves were obtained and IC50 values were calculated via GraphPad Prism 5 (GraphPad, United States). Each experiment was performed three times.
(§3) Before addition of the MTT solution, the inventor determined the cytotoxic effects and IC 50 of the GL1, GL2, GL4, and GL6 mimics at different concentrations of 6.25 nM, 12.5 nM, 25 nM, 50 nM, 100 nM, and 200 nM on A2780, HCT-8 and HepG2 cells. After 48 hours of the treatment of the double-stranded RNA molecules, the cell viability of these cells was compared with that of the control group and the RNAiMAX group. Paclitaxel was used in a comparative example. […] The results were compared with those of the control group and the RNAiMAX group using the transfection agent. For IC50, refer to Table 4. Paclitaxel was used in a comparative example.
(§4) Then the inventor specifically determined the cytotoxic effects and IC50 of the RNA molecules GL2 mimic and different chemically modified GL10, GL11 and GL12 mimics at different concentrations of 6.25 nM, 12.5 nM, 25 nM, 50 nM, 100 nM, and 200 nM on A2780, HCT-8 and HepG2 cells. […] For IC50, refer to Table 5. Paclitaxel was used in a comparative example.

The subject of a further series is HCT-8 cells. Put plainly: MTT cytotoxicity analysis, colorectal cancer cells HCT-8. To be noted: for IC50: HCT-8 colorectal cancer cells, 48 hours of treatment, Lipofectamine RNAiMAX transfection reagent, MTT, read-out: Median inhibitory concentration IC50; for inhibition of growth and proliferation (cell viability vs control and RNAiMAX group): colon cancer cells HCT-8, 6.25-200 nM, 48 hours, FIG. 6-8. On the procedure: as §1, §2, §3, §4

A further series has as its system HepG2 cells. Put plainly: MTT cytotoxicity analysis, liver cancer cells HepG2. The settings on record: for IC50: HepG2 liver cancer cells, 48 hours of treatment, Lipofectamine RNAiMAX transfection reagent, MTT, read-out: Median inhibitory concentration IC50; for inhibition of growth and proliferation (cell viability vs control and RNAiMAX group): liver cancer cells HepG2, 6.25-200 nM, 48 hours, FIG. 6-8. As to the method: as §1, §2, §3, §4

Like-named read-outs stand apart in the source and are kept apart here. [Ψ] = pseudouridine

Regarding `CC(=O)O[C@H]1C(=O)[C@@]2(C)[C@H]([C@H](OC(=O)c3ccccc3)[C@]3(O)C[C@H](OC(=O)[C@H](O)[C@@H](NC(=O)c4ccccc4)c4ccccc4)C(C)=C1C3(C)C)[C@]1(OC(C)=O)CO[C@@H]1C[C@@H]2O` [Taxol, Paclitaxel, reference compound], the IC50 in the series on A2780 cells (Homo sapiens) worked out at 0.0732 µM; in the series on HCT-8 cells (Homo sapiens), 0.621 µM; with HepG2 cells (Homo sapiens) it was 0.678 µM.
With “GL4 mimic: double-stranded RNA from Ganoderma lucidum tRNA-Ile(GAU); antisense SEQ ID NO: 5, sense SEQ ID NO: 14, length 22 (antisense AAGCCUAUAAUUUAAAGGUAGA; sense UCUACCUUUAAAUUAUAGGCUU; RNA, backbone not given here)”, the “inhibition of growth and proliferation (cell viability vs control and RNAiMAX group)” value in the series on A2780 cells was “effective in inhibiting growth and proliferation”; in the series with HCT-8 cells, “effective in inhibiting growth and proliferation”; in the series on HepG2 cells, “effective in inhibiting growth and proliferation”. Besides, the results for the IC50 with HCT-8 cells and in the series with HepG2 cells were 0.95 µM and 0.35 µM, respectively.
As for “GL5: double-stranded RNA from Ganoderma lucidum tRNA-Ile(GAU); antisense SEQ ID NO: 6, sense SEQ ID NO: 15, length 19 (antisense AAGCCUAUAAUUUAAAGGU; sense ACCUUUAAAUUAUAGGCUU; RNA, backbone not given here)”, the “inhibition of growth and proliferation (cell viability vs control and RNAiMAX group)” value was “have the effect of inhibiting the growth and proliferation of cancer cells” in the series with A2780 cells; “have the effect of inhibiting the growth and proliferation of cancer cells” with HCT-8 cells; “have the effect of inhibiting the growth and proliferation of cancer cells” in the series with HepG2 cells.
Turning to “GL6 mimic: double-stranded RNA from Ganoderma lucidum tRNA-Ile(GAU); antisense SEQ ID NO: 7, sense SEQ ID NO: 16, length 22 (antisense UCGAUUCUUCUUGGGCUUACCA; sense UGGUAAGCCCAAGAAGAAUCGA; RNA, backbone not given here)”, the “inhibition of growth and proliferation (cell viability vs control and RNAiMAX group)” value in the series with A2780 cells is “effective in inhibiting growth and proliferation”; with HCT-8 cells, “effective in inhibiting growth and proliferation”; with HepG2 cells, “effective in inhibiting growth and proliferation”. In addition, the IC50 in the series with HCT-8 cells stood at 0.6 µM; in the series on HepG2 cells, 0.4 µM.
For the molecule “GL7: double-stranded RNA from Ganoderma lucidum tRNA-Ile(GAU); antisense SEQ ID NO: 8, sense SEQ ID NO: 17, length 19 (antisense AUUCUUCUUGGGCUUACCA; sense UGGUAAGCCCAAGAAGAAU; RNA, backbone not given here)”, the “inhibition of growth and proliferation (cell viability vs control and RNAiMAX group)” value in the series with A2780 cells was “have the effect of inhibiting the growth and proliferation of cancer cells”; in the series with HCT-8 cells, “have the effect of inhibiting the growth and proliferation of cancer cells”; in the series on HepG2 cells, “have the effect of inhibiting the growth and proliferation of cancer cells”.
Take “GL8: double-stranded RNA from Ganoderma lucidum tRNA-Ile(GAU); antisense SEQ ID NO: 9, sense SEQ ID NO: 18, length 22 (antisense AGUUCGAUUCUUCUUGGGCUUA; sense UAAGCCCAAGAAGAAUCGAACU; RNA, backbone not given here)”: the “inhibition of growth and proliferation (cell viability vs control and RNAiMAX group)” value was “have the effect of inhibiting the growth and proliferation of cancer cells” in the series with A2780 cells; “have the effect of inhibiting the growth and proliferation of cancer cells” in the series on HCT-8 cells; “have the effect of inhibiting the growth and proliferation of cancer cells” in the series on HepG2 cells.
For the molecule “GL9: double-stranded RNA from Ganoderma lucidum tRNA-Ile(GAU); antisense SEQ ID NO: 10, sense SEQ ID NO: 19, length 19 (antisense UCGAUUCUUCUUGGGCUUA; sense UAAGCCCAAGAAGAAUCGA; RNA, backbone not given here)”, the “inhibition of growth and proliferation (cell viability vs control and RNAiMAX group)” value is “have the effect of inhibiting the growth and proliferation of cancer cells” in the series with A2780 cells; “have the effect of inhibiting the growth and proliferation of cancer cells” in the series with HCT-8 cells; “have the effect of inhibiting the growth and proliferation of cancer cells” with HepG2 cells.

B1: GL1 mimic: double-stranded RNA from Ganoderma lucidum tRNA-Ile(GAU); antisense SEQ ID NO: 2, sense SEQ ID NO: 11, length 33 (nucleic acid)
antisense: AAGCCUAUAAUUUAAAGGUAGAAUAAUUUCUUG
sense: CAAGAAAUUAUUCUACCUUUAAAUUAUAGGCUU
modifications: RNA, backbone not given here
Turning to B1, the IC50 with A2780 cells stood at 0.225 µM; with HCT-8 cells it was 0.084 µM; in the series with HepG2 cells, 0.35 µM. Further, the “inhibition of growth and proliferation (cell viability vs control and RNAiMAX group)” value in the series on A2780 cells is “effective in inhibiting growth and proliferation”; with HCT-8 cells, “effective in inhibiting growth and proliferation”; with HepG2 cells, “effective in inhibiting growth and proliferation”.

B2: GL2 mimic: double-stranded RNA from Ganoderma lucidum tRNA-Ile(GAU); antisense SEQ ID NO: 3, sense SEQ ID NO: 12, length 41 (nucleic acid)
antisense: AUAAGGAAUCUGUAGAAGUUCGAUUCUUCUUGGGCUUACCA
sense: UGGUAAGCCCAAGAAGAAUCGAACUUCUACAGAUUCCUUAU
modifications: RNA, backbone not given here
As for B2, the IC50 was 0.0572 µM in the series with A2780 cells, 0.0363 µM in the series on HCT-8 cells and 0.24 µM in the series with HepG2 cells. The “inhibition of growth and proliferation (cell viability vs control and RNAiMAX group)” value was “have a dose-dependent effect on inhibiting the growth and proliferation” in the series with A2780 cells; “effective in inhibiting growth and proliferation” with A2780 cells (listed as GL2); “have a dose-dependent effect on inhibiting the growth and proliferation” with HCT-8 cells; “effective in inhibiting growth and proliferation” in the series with HCT-8 cells (listed as GL2); “have a dose-dependent effect on inhibiting the growth and proliferation” in the series with HepG2 cells; “effective in inhibiting growth and proliferation” in the series with HepG2 cells (listed as GL2).

B3: GL10 mimic: chemically modified GL2 double-stranded RNA (5-methyluridine and pseudouridine); antisense SEQ ID NO: 20, sense SEQ ID NO: 24, length 41 (nucleic acid)
antisense: AUAAGGAAUCUGUAGAAGTUCGAUUCUUCUUGGGCUUACCA
sense: UGGUAAGCCCAAGAAGAAUCGAACUUCUACAGAUUCCUUAU
modifications: antisense: RNA, [Ψ] at 20, backbone not given here; sense: RNA, backbone not given here; further chemistry not fully specified
Take B3: the IC50 came out at 0.0519 µM in the series on A2780 cells, 0.0396 µM with HCT-8 cells and 0.144 µM in the series with HepG2 cells. In addition, the “inhibition of growth and proliferation (cell viability vs control and RNAiMAX group)” value with A2780 cells was “have a dose-dependent effect on inhibiting the growth and proliferation”; in the series on HCT-8 cells it was “have a dose-dependent effect on inhibiting the growth and proliferation”; in the series with HepG2 cells, “have a dose-dependent effect on inhibiting the growth and proliferation”.
